Reference: patent US10464911B2, “1,3,4-oxadiazole sulfamide derivative compounds as histone deacetylase 6 inhibitor, and the pharmaceutical composition comprising the same” (Chong Kun Dang Pharmaceutical Corp., priority 2015, dated 2019)
Counter-ions that a name gives are not always drawn.

Target: human recombinant HDAC6 (Homo sapiens (Human), UniProt Q9UBN7)
Test: HDAC6 enzyme activity inhibition assay (HDAC Fluorimetric Drug Discovery Kit)
Format: biochemical
Conditions: for HDAC6 selectivity (fold): HDAC6 versus HDAC1; for IC50: human recombinant HDAC6, same protocol as HDAC1 test
Procedure: In order to examine the HDAC6 selectivity of the compounds of formula I of the present invention by HDAC1 and HDAC6 enzymatic activity inhibition assays, an experiment was performed using a conventional substance as a control.
HDAC enzyme activity was measured using a HDAC Fluorimetric Drug Discovery Kit (BML-AK511, 516, Enzo Life Science). For the HDAC1 enzyme activity test, human recombinant HDAC1 (BML-SE456) was used as an enzyme source, and Fluor de Lys®-“SIRT1 (BNL-KI177) was used as a substrate. A 5-fold dilution of the compound was seeded into a 96-well plate, and then 0.3 μg of the enzyme and 10 μM of the substrate were added to each well of the plate and allowed to react at 30 for 60 minutes. Then, Fluor de Lys®-Developer II (BML-KI176) was added thereto and allowed to react for 30 minutes, after which the fluorescence value (Ex 360, Em 460) was measured using a multi-plate reader (Flexstation 3, Molecular Device). The HDAC6 enzyme was tested using human recombinant HDAC6 (382180) (Calbiochem) according to the same protocol as the HDAC1 enzyme activity test method. Based on the resulting values, each IC50 value was calculated using GraphPad Prism4.0 program.

Sequence of human recombinant HDAC6 (Q9UBN7 whole entry): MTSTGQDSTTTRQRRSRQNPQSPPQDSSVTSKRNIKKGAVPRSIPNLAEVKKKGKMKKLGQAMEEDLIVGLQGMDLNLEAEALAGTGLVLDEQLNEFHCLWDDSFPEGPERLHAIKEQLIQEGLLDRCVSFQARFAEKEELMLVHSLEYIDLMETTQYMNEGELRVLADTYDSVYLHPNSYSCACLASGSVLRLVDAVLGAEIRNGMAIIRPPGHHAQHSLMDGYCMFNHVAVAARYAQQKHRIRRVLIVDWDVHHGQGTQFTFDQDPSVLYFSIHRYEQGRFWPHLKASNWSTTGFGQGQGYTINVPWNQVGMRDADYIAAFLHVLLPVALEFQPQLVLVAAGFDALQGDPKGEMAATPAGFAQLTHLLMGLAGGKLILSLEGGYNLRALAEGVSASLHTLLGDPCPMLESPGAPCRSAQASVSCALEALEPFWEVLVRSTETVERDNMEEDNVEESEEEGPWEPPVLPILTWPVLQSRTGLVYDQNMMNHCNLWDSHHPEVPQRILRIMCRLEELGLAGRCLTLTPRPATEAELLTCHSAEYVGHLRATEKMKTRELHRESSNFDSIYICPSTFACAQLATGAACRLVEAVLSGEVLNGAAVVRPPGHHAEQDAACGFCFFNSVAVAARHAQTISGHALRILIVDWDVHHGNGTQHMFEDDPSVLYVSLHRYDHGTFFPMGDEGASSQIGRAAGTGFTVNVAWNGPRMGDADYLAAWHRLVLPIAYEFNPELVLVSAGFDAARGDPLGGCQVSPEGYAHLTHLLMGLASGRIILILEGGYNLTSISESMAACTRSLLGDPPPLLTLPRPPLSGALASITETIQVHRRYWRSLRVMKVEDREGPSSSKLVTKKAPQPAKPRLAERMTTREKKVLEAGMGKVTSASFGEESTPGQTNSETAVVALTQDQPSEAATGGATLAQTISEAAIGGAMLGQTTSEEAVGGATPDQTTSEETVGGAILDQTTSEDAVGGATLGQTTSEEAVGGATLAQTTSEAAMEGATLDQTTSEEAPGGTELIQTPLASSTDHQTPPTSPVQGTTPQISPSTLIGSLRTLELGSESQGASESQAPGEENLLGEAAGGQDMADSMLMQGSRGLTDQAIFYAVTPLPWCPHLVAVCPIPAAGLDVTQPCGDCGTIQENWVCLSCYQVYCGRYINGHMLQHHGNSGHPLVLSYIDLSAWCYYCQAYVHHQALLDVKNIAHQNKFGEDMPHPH

SMILES | HDAC6 selectivity (fold) | IC50 [nM]
O=S(=O)(N1CCNCC1)N(Cc1ccc(-c2nnc(C(F)F)o2)cc1F)c1cccnc1 [Compound 11317, N-(4-(5-(difluoromethyl)-1,3,4-oxadiazol-2-yl)-2-fluorobenzyl)-N-(pyridin-3-yl)piperazine-1-sulfonamide Dihydrochloride] | 1234 | 81
Cl.O=S(=O)(N1CCC2(CC1)CNC2)N(Cc1ccc(-c2nnc(C(F)F)o2)cc1)c1ccccc1 [Compound 11787, N-(4-(5-(difluoromethyl)-1,3,4-oxadiazol-2-yl)benzyl)-N-phenyl-2,7-diazaspiro[3.5]nonane-7-sulfonamide Hydrochloride] | 1041 | 96
CCCN1[C@H](C)CN(S(=O)(=O)N(Cc2ccc(-c3nnc(C(F)F)o3)cc2)c2ccccc2)C[C@@H]1C [Compound 11642, (3S,5R)—N-(4-(5-(difluoromethyl)-1,3,4-oxadiazol-2-yl)benzyl)-3,5-dimethyl-N-phenyl-4-propylpiperazine-1-sulfonamide] | 287 | 348
CC(=O)N1CCN(S(=O)(=O)N(Cc2ccc(-c3nnc(C(F)F)o3)cc2F)c2cccnc2)CC1 [Compound 11318, 4-acetyl-N-(4-(5-(difluoromethyl)-1,3,4-oxadiazol-2-yl)-2-fluorobenzyl)-N-(pyridin-3-yl)piperazine-1-sulfonamide] | 2299 | 43
CC(C)N1CCN(S(=O)(=O)N(Cc2ccc(-c3nnc(C(F)F)o3)cn2)c2ccc(F)c(Cl)c2)CC1 [Compound 11670, N-(3-chloro-4-fluorophenyl)-N-((5-(5-(difluoromethyl)-1,3,4-oxadiazol-2-yl)pyridin-2-yl)methyl)-4-isopropylpiperazine-1-sulfonamide] | 4761 | 21
CN1CCN(S(=O)(=O)N(Cc2ccc(-c3nnc(C(F)(F)F)o3)cc2F)c2cccc(F)c2)CC1 [Compound 11312, N-(2-fluoro-4-(5-(trifluoromethyl)-1,3,4-oxadiazol-2-yl)benzyl)-N-(3-fluorophenyl)-4-methylpiperazine-1-sulfonamide] | 1371 | 73
Cl.O=S(=O)(N1CCNCC1)N(Cc1ccc(-c2nnc(C(F)F)o2)cc1F)c1ccccc1 [Compound 11301, N-(4-(5-(difluoromethyl)-1,3,4-oxadiazol-2-yl)-2-fluorobenzyl)-N-phenylpiperazine-1-sulfonamide Hydrochloride] | 3622 | 28
Cl.O=S(=O)(N1CCNCC1)N(Cc1ccc(-c2nnc(C(F)F)o2)cc1F)c1cccc(F)c1 [Compound 11313, N-(4-(5-(difluoromethyl)-1,3,4-oxadiazol-2-yl)-2-fluorobenzyl)-N-(3-fluorophenyl)piperazine-1-sulfonamide Hydrochloride] | 4246 | 24
CC(C)N1CCN(S(=O)(=O)N(Cc2ccc(-c3nnc(C(F)F)o3)cc2)c2ccc(F)c(Cl)c2)CC1 [Compound 11651, N-(3-chloro-4-fluorophenyl)-N-(4-(5-(difluoromethyl)-1,3,4-oxadiazol-2-yl)benzyl)-4-iso propylpiperazine-1-sulfonamide] | 207 | 481
CC(C)C(=O)N1CCN(S(=O)(=O)N(Cc2ccc(-c3nnc(C(F)F)o3)cc2F)c2ccccc2)CC1 [Compound 11304, N-(4-(5-(difluoromethyl)-1,3,4-oxadiazol-2-yl)-2-fluorobenzyl)-4-isobutyryl-N-phenylpiperazine-1-sulfonamide] | 1912 | 52
C[C@@H]1CN(S(=O)(=O)N(Cc2ccc(-c3nnc(C(F)F)o3)cc2)c2ccccc2)C[C@H](C)N1C [Compound 11643, (3S,5R)—N-(4-(5-(difluoromethyl)-1,3,4-oxadiazol-2-yl)benzyl)-3,4,5-trimethyl-N-phenylpiperazine-1-sulfonamide] | 1443 | 69

Other lines, results leading:

HDAC6 selectivity (fold) | IC50 [nM] | SMILES
4363 | 23 | CN1CCN(S(=O)(=O)N(Cc2ccc(-c3nnc(C(F)F)o3)cc2F)c2ccccc2)CC1 [Compound 11306, N-(4-(5-(difluoromethyl)-1,3,4-oxadiazol-2-yl)-2-fluorobenzyl)-4-methyl-N-phenylpiperazine-1-sulfonamide]
3174 | 32 | CC(=O)N1CCN(S(=O)(=O)N(Cc2ccc(-c3nnc(C(F)F)o3)cc2F)c2ccccc2)CC1 [Compound 11302, 4-acetyl-N-(4-(5-(difluoromethyl)-1,3,4-oxadiazol-2-yl)-2-fluorobenzyl)-N-phenylpiperazine-1-sulfonamide]
2083 | 48 | Cc1cccc(N(Cc2ccc(-c3nnc(C(F)F)o3)cn2)S(=O)(=O)N2CCN(C)[C@H](C)C2)c1 [Compound 11823, (R)—N-((5-(5-(difluoromethyl)-1,3,4-oxadiazol-2-yl)pyridin-2-yl)methyl)-3,4-dimethyl-N-(m-tolyl)piperazine-1-sulfonamide]
2083 | 48 | O=S(=O)(N1CCN(C2COC2)CC1)N(Cc1ccc(-c2nnc(C(F)F)o2)cc1)c1ccccc1 [Compound 11575, N-(4-(5-(difluoromethyl)-1,3,4-oxadiazol-2-yl)benzyl)-4-(oxetan-3-yl)-N-phenylpiperazine-1-sulfonamide]
6250 | 16 | O=S(=O)(N1CCN(C2COC2)CC1)N(Cc1ccc(-c2nnc(C(F)F)o2)cn1)c1ccccc1 [Compound 11574, N-((5-(5-(difluoromethyl)-1,3,4-oxadiazol-2-yl)pyridin-2-yl)methyl)-4-(oxetan-3-yl)-N-phenylpiperazine-1-sulfonamide]
3703 | 27 | O=S(=O)(N1CCN(C2CCC2)CC1)N(Cc1ccc(-c2nnc(C(F)F)o2)cn1)c1ccc(F)c(Cl)c1 [Compound 11671, N-(3-chloro-4-fluorophenyl)-4-cyclobutyl-N-((5-(5-(difluoromethyl)-1,3,4-oxadiazol-2-yl)pyridin-2-yl)methyl)piperazine-1-sulfonamide]
3187 | 31 | CCC(=O)N1CCN(S(=O)(=O)N(Cc2ccc(-c3nnc(C(F)F)o3)cc2F)c2ccccc2)CC1 [Compound 11303, N-(4-(5-(difluoromethyl)-1,3,4-oxadiazol-2-yl)-2-fluorobenzyl)-N-phenyl-4-propionylpiperazine-1-sulfonamide]
2366 | 42 | CCN1CCN(S(=O)(=O)N(Cc2ccc(-c3nnc(C(F)F)o3)cc2F)c2ccccc2)CC1 [Compound 11307, N-(4-(5-(difluoromethyl)-1,3,4-oxadiazol-2-yl)-2-fluorobenzyl)-4-ethyl-N-phenylpiperazine-1-sulfonamide]
1351 | 74 | CC(C)N1CCN(S(=O)(=O)N(Cc2ccc(-c3nnc(C(F)F)o3)cc2)c2ccccc2)CC1 [Compound 11673, N-(4-(5-(difluoromethyl)-1,3,4-oxadiazol-2-yl)benzyl)-4-isopropyl-N-phenylpiperazine-1-sulfonamide]
7142 | 14 | O=S(=O)(N1CCN(C2COC2)CC1)N(Cc1ccc(-c2nnc(C(F)F)o2)cn1)c1ccc(F)c(Cl)c1 [Compound 11672, N-(3-chloro-4-fluorophenyl)-N-((5-(5-(difluoromethyl)-1,3,4-oxadiazol-2-yl)pyridin-2-yl)methyl)-4-(oxetan-3-yl)piperazine-1-sulfonamide]
1923 | 52 | Cc1cccc(N(Cc2ccc(-c3nnc(C(F)F)o3)cn2)S(=O)(=O)N2CCN(C)[C@@H](C)C2)c1 [Compound 11827, (S)—N-((5-(5-(difluoromethyl)-1,3,4-oxadiazol-2-yl)pyridin-2-yl)methyl)-3,4-dimethyl-N-(m-tolyl)piperazine-1-sulfonamide]
2439 | 41 | C[C@@H]1CN(S(=O)(=O)N(Cc2ccc(-c3nnc(C(F)F)o3)cn2)c2cccc(Cl)c2)CCN1C1COC1 [Compound 11826, (R)—N-(3-chlorophenyl)-N-((5-(5-(difluoromethyl)-1,3,4-oxadiazol-2-yl)pyridin-2-yl)methyl)-3-methyl-4-(oxetan-3-yl)piperazine-1-sulfonamide]
2777 | 36 | C[C@@H]1CN(S(=O)(=O)N(Cc2ccc(-c3nnc(C(F)F)o3)cn2)c2cccc(Cl)c2)CCN1C [Compound 11825, (R)—N-(3-chlorophenyl)-N-((5-(5-(difluoromethyl)-1,3,4-oxadiazol-2-yl)pyridin-2-yl)methyl)-3,4-dimethylpiperazine-1-sulfonamide]
751 | 133 | O=S(=O)(N1CCN(C2CCC2)CC1)N(Cc1ccc(-c2nnc(C(F)F)o2)cc1)c1ccccc1 [Compound 11674, 4-cyclobutyl-N-(4-(5-(difluoromethyl)-1,3,4-oxadiazol-2-yl)benzyl)-N-phenylpiperazine-1-sulfonamide]
